The text below walks through data of PubChem BioAssay AID342 (DTP/NCI, 2004).

This experiment deals with Swiss mice, Sarcoma 180 sc, mean tumor weight T/C. The experiment can be described thus: NCI In Vivo Anticancer Drug Screen. Data for tumor model Sarcoma 180 (subcutaneous) in Swiss mice. The settings on record: endpoint: mean tumor weight, higher = larger tumour. As for the experimental part: The antitumor activity of compounds was measured in mice bearing transplantable tumors. Survival or tumor size were measured and the results are expressed as the measurement made in the treated group (T) divided by the measurement made in the vehicle treated control group (C). The tumor model used in this assay is Sarcoma 180 (subcutaneous) in Swiss mice

Where [1] appears, read: dose: 25.0 mg/kg/injection, schedule: Q01DX007 (ip), vehicle: water.
Setting [2] is: dose: 50.0 mg/kg/injection, schedule: Q01DX007 (ip), vehicle: water.

“And” between values parts separate entries of the source, which are not always exact repeats. Identical values can stand only once.

With `O=C(Nc1ccc(N=Nc2ccc(S(=O)(=O)O)cc2)cc1)c1ccc(N=Nc2c(O)ccc3cc(S(=O)(=O)O)ccc23)cc1`, the T/C is, setting by setting: (dose: 12.5 mg/kg/injection, schedule: Q01DX007 (ip), vehicle: water) 103 % of control; under setting [1], 84 % of control; under setting [2], 67 % of control.
As for `O=C(O)C(O)C(F)(F)F` (centres undefined), the T/C is 111 % of control (dose: 15.5 mg/kg/injection, schedule: Q#A X014 (ip), vehicle: saline); 90 % of control (dose: 62.5 mg/kg/injection, schedule: Q#A X014 (ip), vehicle: saline); 123 % of control (dose: 125.0 mg/kg/injection, schedule: Q#A X014 (ip), vehicle: saline).
In the case of `CS(=O)(=O)OCCC(=O)N1CCN(C(=O)CCOS(C)(=O)=O)CC1`, the T/C is, setting by setting: (dose: 12.5 mg/kg/injection, schedule: Q01DX007 (ip), vehicle: saline) 92 % of control; (dose: 25.0 mg/kg/injection, schedule: Q01DX007 (ip), vehicle: saline) 76 % of control and 100 % of control; (dose: 67.0 mg/kg/injection, schedule: Q#A X014 (ip), vehicle: methylcellulose (MC)) 8 % of control and 23 % of control; (dose: 150.0 mg/kg/injection, schedule: Q#A X014 (ip), vehicle: methylcellulose (MC)) 7 % of control.
Turning to `Cc1cc(C(=O)NN)c(C#N)c(=O)[nH]1`, the T/C runs as follows: (dose: 111.0 mg/kg/injection, schedule: Q01DX007 (ip), vehicle: carboxymethylcellulose (CMC)) 82 % of control; (dose: 166.0 mg/kg/injection, schedule: Q01DX007 (ip), vehicle: carboxymethylcellulose (CMC)) 87 % of control; (dose: 250.0 mg/kg/injection, schedule: Q01DX007 (ip), vehicle: carboxymethylcellulose (CMC)) 30 % of control; (dose: 375.0 mg/kg/injection, schedule: Q01DX007 (ip), vehicle: carboxymethylcellulose (CMC)) 46 % of control.
For `CN(C)C1C(=O)C(C(N)=O)=C(O)C2(O)C(=O)C3=C(O)c4c(O)cccc4C(C)(O)C3C(O)C12` (centres undefined), the T/C is, setting by setting: (dose: 15.12 mg/kg/injection, schedule: Q01DX007 (ip), vehicle: carboxymethylcellulose (CMC)) 98 % of control; (dose: 17.5 mg/kg/injection, schedule: Q01DX007 (ip), vehicle: carboxymethylcellulose (CMC)) 111 % of control; (dose: 31.25 mg/kg/injection, schedule: Q01DX007 (ip), vehicle: carboxymethylcellulose (CMC)) 124 % of control; (dose: 35.0 mg/kg/injection, schedule: Q01DX007 (ip), vehicle: carboxymethylcellulose (CMC)) 105 % of control; (dose: 62.5 mg/kg/injection, schedule: Q01DX007 (ip), vehicle: carboxymethylcellulose (CMC)) 117 % of control; (dose: 70.0 mg/kg/injection, schedule: Q01DX007 (ip), vehicle: carboxymethylcellulose (CMC)) 102 % of control. For the same compound, the T/C by setting is: (dose: 125.0 mg/kg/injection, schedule: Q01DX007 (ip), vehicle: carboxymethylcellulose (CMC)) 50 % of control; (dose: 140.0 mg/kg/injection, schedule: Q01DX007 (ip), vehicle: carboxymethylcellulose (CMC)) 79 % of control.
With `Nc1nc(Cc2ccccc2)cc(=O)[nH]1`, the T/C reads like this: (dose: 62.5 mg/kg/injection, schedule: Q01DX007 (ip), vehicle: water) 88 % of control; (dose: 125.0 mg/kg/injection, schedule: Q01DX007 (ip), vehicle: water) 78 % of control; (dose: 250.0 mg/kg/injection, schedule: Q01DX007 (ip), vehicle: water) 67 % of control.
In the case of `C[C@]12C=CC(=O)C=C1CC[C@@H]1[C@@H]2[C@@H](O)C[C@@]2(C)[C@H]1CC[C@]2(O)C(=O)COC(=O)C1CCCC1`, the T/C is, setting by setting: (dose: 3.5 mg/kg/injection, schedule: Q#A X014 (sc), vehicle: water) 68 % of control; (dose: 5.0 mg/kg/injection, schedule: Q#A X014 (sc), vehicle: water) 35 % of control; (dose: 7.5 mg/kg/injection, schedule: Q#A X014 (sc), vehicle: water) 49 % of control; (dose: 11.5 mg/kg/injection, schedule: Q#A X014 (sc), vehicle: water) 47 % of control; (dose: 17.5 mg/kg/injection, schedule: Q#A X014 (sc), vehicle: water) 32 % of control.
In the case of `O=c1cccc2n1CC1CNC[C@H]2C1`, the T/C (dose: 0.78 mg/kg/injection, schedule: Q01DX007 (ip), vehicle: saline) is 92 % of control; the T/C (dose: 1.56 mg/kg/injection, schedule: Q01DX007 (ip), vehicle: saline) was 97 % of control; the T/C (dose: 3.13 mg/kg/injection, schedule: Q01DX007 (ip), vehicle: saline) is 62 % of control and 87 % of control; the T/C (dose: 6.25 mg/kg/injection, schedule: Q01DX007 (ip), vehicle: saline) is 64 % of control.
For `CC1CC(C)C(O)C(C(O)CC2CC(=O)NC(=O)C2)C1` (centres undefined), the T/C (dose: 40.0 mg/kg/injection, schedule: Q01DX007 (ip), vehicle: carboxymethylcellulose (CMC)) was 84 % of control; the T/C (dose: 62.0 mg/kg/injection, schedule: Q01DX007 (ip), vehicle: carboxymethylcellulose (CMC)) was 55 % of control; the T/C (dose: 93.0 mg/kg/injection, schedule: Q01DX007 (ip), vehicle: carboxymethylcellulose (CMC)) is 44 % of control.
For `COc1ccc(C[C@H](N)C(=O)NC2C(CO)OC(n3cnc4c(N(C)C)ncnc43)C2O)cc1` (some centres undefined), the T/C runs as follows: (dose: 12.5 mg/kg/injection, schedule: Q#A X014 (ip), vehicle: carboxymethylcellulose (CMC)) 106 % of control; (dose: 13.12 mg/kg/injection, schedule: Q01DX007 (ip), vehicle: carboxymethylcellulose (CMC)) 65 % of control; (dose: 26.25 mg/kg/injection, schedule: Q01DX007 (ip), vehicle: carboxymethylcellulose (CMC)) 105 % of control; (dose: 52.5 mg/kg/injection, schedule: Q01DX007 (ip), vehicle: carboxymethylcellulose (CMC)) 66 % of control; (dose: 105.0 mg/kg/injection, schedule: Q01DX007 (ip), vehicle: carboxymethylcellulose (CMC)) 80 % of control.
Turning to `Oc1ccccc1C(Nc1nc2ccccc2s1)c1ccc2cccnc2c1O` (centres undefined), the T/C reads like this: (dose: 62.0 mg/kg/injection, schedule: Q01DX007 (ip), vehicle: other) 94 % of control; (dose: 125.0 mg/kg/injection, schedule: Q01DX007 (ip), vehicle: other) 97 % of control; (dose: 250.0 mg/kg/injection, schedule: Q01DX007 (ip), vehicle: other) 46 % of control.
As for `Cc1[nH]ccc2c(C)c3nc4ccccc4c3cc12`, the T/C is, setting by setting: under setting [1], 171 % of control; under setting [2], 122 % of control; (dose: 100.0 mg/kg/injection, schedule: Q01DX007 (ip), vehicle: water) 116 % of control; (dose: 200.0 mg/kg/injection, schedule: Q01DX007 (ip), vehicle: water) 42 % of control.
